Experimental data as given in patent US10336792B2, “Antimicrobial peptide dendrimers” (priority 2014, dated 2019).
In brackets after ≈: the same amount, converted by molar mass. Positions of bridges follow the written chain, without caps; N, C: chain ends. Non-standard residues stand in square brackets, D forms with d. Residues, ends and D or L forms follow the SMILES beside them. Groups on a side chain read outwards from the residue. Chains are numbered I, II in the order given. *: point of attachment. X1 = CCCCCCCCCCCCCCCCCCCCCCCC(=O)*; Decanoyl = CCCCCCCCCC(=O)*; Octanoyl = CCCCCCCC(=O)*; Dab = NCC[C@H](N)C(=O)O; Dap = NC[C@H](N)C(=O)O

Tests used:
Format in all cases: cell-based
[1] = test system: Bacillus subtilis (strain BR151); details: strain BR151
Procedure, shortened: (§1)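 Broth microdilution MIC in LB; overnight cultures diluted to OD600 0.001 and mixed 1:1 with ⅔-serially diluted samples (stock 1 mg mL^−1 in H2O), 37° C for 18-24 h. MTT (0.1%) added; MIC read by eye as lowest concentration inhibiting visible growth (yellow).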

[2] = test system: Escherichia coli (strain DH5α); details: DH5α
Procedure, shortened: as §1

[3] = test system: Pseudomonas aeruginosa (strain PA01); test: microbe, parasite or virus in culture; details: strain
Procedure, shortened: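 Broth microdilution MIC against P. aeruginosa PAO1 in LB: peptides serially diluted by ⅔, bacteria added at OD600 0.001 and incubated 18–24 h at 37 °C. MTT added; MIC is the lowest concentration preventing visible growth.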

Compound	MIC B. subtilis BR151 [1]	MIC E. coli DH5α [2]	MIC P. aeruginosa PAO1 [3]
CCCCCCCCCC(=O)NCCCC[C@H](NC(=O)[C@H](CC(C)C)NC(=O)[C@H](CCCCN)NC(=O)[C@H](CCCCNC(=O)[C@H](CC(C)C)NC(=O)[C@H](CCCCN)NC(=O)[C@H](CCCCNC(=O)[C@H](CC(C)C)NC(=O)[C@H](CCCCN)NC(=O)[C@H](CCCCNC(=O)[C@H](CC(C)C)NC(=O)[C@@H](N)CCCCN)NC(=O)[C@H](CC(C)C)NC(=O)[C@@H](N)CCCCN)NC(=O)[C@H](CC(C)C)NC(=O)[C@H](CCCCN)NC(=O)[C@H](CCCCNC(=O)[C@H](CC(C)C)NC(=O)[C@@H](N)CCCCN)NC(=O)[C@H](CC(C)C)NC(=O)[C@@H](N)CCCCN)NC(=O)[C@H](CC(C)C)NC(=O)[C@H](CCCCN)NC(=O)[C@H](CCCCNC(=O)[C@H](CC(C)C)NC(=O)[C@H](CCCCN)NC(=O)[C@H](CCCCNC(=O)[C@H](CC(C)C)NC(=O)[C@@H](N)CCCCN)NC(=O)[C@H](CC(C)C)NC(=O)[C@@H](N)CCCCN)NC(=O)[C@H](CC(C)C)NC(=O)[C@H](CCCCN)NC(=O)[C@H](CCCCNC(=O)[C@H](CC(C)C)NC(=O)[C@@H](N)CCCCN)NC(=O)[C@H](CC(C)C)NC(=O)[C@@H](N)CCCCN)C(N)=O [MSt-266, (KL)8(KKL)4(KKL)2(KKLKC10)] (I: H-KLK([Leu-Lys])KLKKLKKLK(Decanoyl)-NH2 / II: H-KLK([Leu-Lys])KLKKL / III: H-KLK([Leu-Lys])KL / IV: H-KLK([Leu-Lys])KL; amide I:6-IV:C, I:9-II:C, II:6-III:C)	4 µg/mL (≈ 0.83 µM)	1 µg/mL (≈ 0.208 µM)	1 µg/mL (≈ 0.208 µM)
CCCCCCCCCCCCCCCCCCCCCCCC(=O)NCCCC[C@H](NC(=O)[C@H](CC(C)C)NC(=O)[C@H](CCCCN)NC(=O)[C@H](CCCCNC(=O)[C@H](CC(C)C)NC(=O)[C@H](CCCCN)NC(=O)[C@H](CCCCNC(=O)[C@H](CC(C)C)NC(=O)[C@H](CCCCN)NC(=O)[C@H](CCCCNC(=O)[C@H](CC(C)C)NC(=O)[C@@H](N)CCCCN)NC(=O)[C@H](CC(C)C)NC(=O)[C@@H](N)CCCCN)NC(=O)[C@H](CC(C)C)NC(=O)[C@H](CCCCN)NC(=O)[C@H](CCCCNC(=O)[C@H](CC(C)C)NC(=O)[C@@H](N)CCCCN)NC(=O)[C@H](CC(C)C)NC(=O)[C@@H](N)CCCCN)NC(=O)[C@H](CC(C)C)NC(=O)[C@H](CCCCN)NC(=O)[C@H](CCCCNC(=O)[C@H](CC(C)C)NC(=O)[C@H](CCCCN)NC(=O)[C@H](CCCCNC(=O)[C@H](CC(C)C)NC(=O)[C@@H](N)CCCCN)NC(=O)[C@H](CC(C)C)NC(=O)[C@@H](N)CCCCN)NC(=O)[C@H](CC(C)C)NC(=O)[C@H](CCCCN)NC(=O)[C@H](CCCCNC(=O)[C@H](CC(C)C)NC(=O)[C@@H](N)CCCCN)NC(=O)[C@H](CC(C)C)NC(=O)[C@@H](N)CCCCN)C(N)=O [MSt-285, (KL)8(KKL)4(KKL)2(KKLKC24)] (I: H-KLK([Leu-Lys])KLKKLKKLK(X1)-NH2 / II: H-KLK([Leu-Lys])KLKKL / III: H-KLK([Leu-Lys])KL / IV: H-KLK([Leu-Lys])KL; amide I:6-IV:C, I:9-II:C, II:6-III:C)	16 µg/mL (≈ 3.19 µM)	5 µg/mL (≈ 0.997 µM)	12 µg/mL (≈ 2.39 µM)
CC(C)C[C@H](NC(=O)[C@H](CCN)NC(=O)[C@H](CCCCNC(=O)[C@H](Cc1c[nH]c2ccccc12)NC(=O)[C@H](CCN)NC(=O)[C@H](CCCCNC(=O)[C@H](CC(C)C)NC(=O)[C@@H](N)CCN)NC(=O)[C@H](CC(C)C)NC(=O)[C@@H](N)CCN)NC(=O)[C@H](Cc1c[nH]c2ccccc12)NC(=O)[C@H](CCN)NC(=O)[C@H](CCCCNC(=O)[C@H](CC(C)C)NC(=O)[C@@H](N)CCN)NC(=O)[C@H](CC(C)C)NC(=O)[C@@H](N)CCN)C(=O)NCCCC[C@H](NC(=O)[C@H](CC(C)C)NC(=O)[C@H](CCN)NC(=O)[C@H](CCCCNC(=O)[C@H](Cc1c[nH]c2ccccc12)NC(=O)[C@H](CCN)NC(=O)[C@H](CCCCNC(=O)[C@H](CC(C)C)NC(=O)[C@@H](N)CCN)NC(=O)[C@H](CC(C)C)NC(=O)[C@@H](N)CCN)NC(=O)[C@H](Cc1c[nH]c2ccccc12)NC(=O)[C@H](CCN)NC(=O)[C@H](CCCCNC(=O)[C@H](CC(C)C)NC(=O)[C@@H](N)CCN)NC(=O)[C@H](CC(C)C)NC(=O)[C@@H](N)CCN)C(=O)N[C@@H](CCN)C(=O)N[C@@H](Cc1c[nH]c2ccccc12)C(N)=O [MSt-202, (DabL)8(KDabW)4(KDabL)2(KDabW)] (I: H-[Dab]LK([Leu-Dab])[Dab]WK[Dab]LK[Dab]W-NH2 / II: H-[Dab]LK([Leu-Dab])[Dab]WK[Dab]L / III: H-[Dab]LK([Leu-Dab])[Dab]W / IV: H-[Dab]LK([Leu-Dab])[Dab]W; amide I:6-IV:C, I:9-II:C, II:6-III:C; N-terminus assumed)	1 µg/mL (≈ 0.223 µM)	1 µg/mL (≈ 0.223 µM)	2 µg/mL (≈ 0.447 µM)
CC(C)C[C@H](NC(=O)[C@@H](N)CCN)C(=O)NCCCC[C@H](NC(=O)[C@H](CC(C)C)NC(=O)[C@@H](N)CCN)C(=O)N[C@@H](CCN)C(=O)N[C@@H](Cc1c[nH]c2ccccc12)C(=O)NCCCC[C@H](NC(=O)[C@H](Cc1c[nH]c2ccccc12)NC(=O)[C@H](CCN)NC(=O)[C@H](CCCCNC(=O)[C@H](CC(C)C)NC(=O)[C@@H](N)CCN)NC(=O)[C@H](CC(C)C)NC(=O)[C@@H](N)CCN)C(=O)N[C@@H](CCN)C(=O)N[C@@H](Cc1c[nH]c2ccccc12)C(=O)NCCCC[C@H](NC(=O)[C@H](Cc1c[nH]c2ccccc12)NC(=O)[C@H](CCN)NC(=O)[C@H](CCCCNC(=O)[C@H](Cc1c[nH]c2ccccc12)NC(=O)[C@H](CCN)NC(=O)[C@H](CCCCNC(=O)[C@H](CC(C)C)NC(=O)[C@@H](N)CCN)NC(=O)[C@H](CC(C)C)NC(=O)[C@@H](N)CCN)NC(=O)[C@H](Cc1c[nH]c2ccccc12)NC(=O)[C@H](CCN)NC(=O)[C@H](CCCCNC(=O)[C@H](CC(C)C)NC(=O)[C@@H](N)CCN)NC(=O)[C@H](CC(C)C)NC(=O)[C@@H](N)CCN)C(=O)N[C@@H](CCN)C(=O)N[C@@H](C)C(N)=O [MSt-205, (DabL)8(KDabW)4(KDabW)2(KDabA)] (I: H-[Dab]LK([Leu-Dab])[Dab]WK[Dab]WK[Dab]A-NH2 / II: H-[Dab]LK([Leu-Dab])[Dab]WK[Dab]W / III: H-[Dab]LK([Leu-Dab])[Dab]W / IV: H-[Dab]LK([Leu-Dab])[Dab]W; amide I:6-IV:C, I:9-II:C, II:6-III:C; N-terminus assumed)	2 µg/mL (≈ 0.443 µM)	2 µg/mL (≈ 0.443 µM)	3 µg/mL (≈ 0.665 µM)
CC(C)C[C@H](NC(=O)[C@H](CCCCN)NC(=O)[C@H](CNC(=O)[C@H](CC(C)C)NC(=O)[C@H](CCCCN)NC(=O)[C@H](CNC(=O)[C@H](CC(C)C)NC(=O)[C@H](CCCCN)NC(=O)[C@H](CNC(=O)[C@H](CC(C)C)NC(=O)[C@@H](N)CCCCN)NC(=O)[C@H](CC(C)C)NC(=O)[C@@H](N)CCCCN)NC(=O)[C@H](CC(C)C)NC(=O)[C@H](CCCCN)NC(=O)[C@H](CNC(=O)[C@H](CC(C)C)NC(=O)[C@@H](N)CCCCN)NC(=O)[C@H](CC(C)C)NC(=O)[C@@H](N)CCCCN)NC(=O)[C@H](CC(C)C)NC(=O)[C@H](CCCCN)NC(=O)[C@H](CNC(=O)[C@H](CC(C)C)NC(=O)[C@H](CCCCN)NC(=O)[C@H](CNC(=O)[C@H](CC(C)C)NC(=O)[C@@H](N)CCCCN)NC(=O)[C@H](CC(C)C)NC(=O)[C@@H](N)CCCCN)NC(=O)[C@H](CC(C)C)NC(=O)[C@H](CCCCN)NC(=O)[C@H](CNC(=O)[C@H](CC(C)C)NC(=O)[C@@H](N)CCCCN)NC(=O)[C@H](CC(C)C)NC(=O)[C@@H](N)CCCCN)C(N)=O [MSt-136, (KL)8(BKL)4(BKL)2(BKL)] (I: H-KL[Dap]([Leu-Lys])KL[Dap]KL[Dap]KL-NH2 / II: H-KL[Dap]([Leu-Lys])KL[Dap]KL / III: H-KL[Dap]([Leu-Lys])KL / IV: H-KL[Dap]([Leu-Lys])KL; amide I:6-IV:C, I:9-II:C, II:6-III:C)	2 µg/mL (≈ 0.472 µM)	1 µg/mL (≈ 0.236 µM)	2 µg/mL (≈ 0.472 µM)
CCCCCCCC(=O)NCCCC[C@H](NC(=O)[C@H](CC(C)C)NC(=O)[C@H](CCCCN)NC(=O)[C@H](CCCCNC(=O)[C@H](CC(C)C)NC(=O)[C@H](CCCCN)NC(=O)[C@H](CCCCNC(=O)[C@H](CC(C)C)NC(=O)[C@H](CCCCN)NC(=O)[C@H](CCCCNC(=O)[C@H](CC(C)C)NC(=O)[C@@H](N)CCCCN)NC(=O)[C@H](CC(C)C)NC(=O)[C@@H](N)CCCCN)NC(=O)[C@H](CC(C)C)NC(=O)[C@H](CCCCN)NC(=O)[C@H](CCCCNC(=O)[C@H](CC(C)C)NC(=O)[C@@H](N)CCCCN)NC(=O)[C@H](CC(C)C)NC(=O)[C@@H](N)CCCCN)NC(=O)[C@H](CC(C)C)NC(=O)[C@H](CCCCN)NC(=O)[C@H](CCCCNC(=O)[C@H](CC(C)C)NC(=O)[C@H](CCCCN)NC(=O)[C@H](CCCCNC(=O)[C@H](CC(C)C)NC(=O)[C@@H](N)CCCCN)NC(=O)[C@H](CC(C)C)NC(=O)[C@@H](N)CCCCN)NC(=O)[C@H](CC(C)C)NC(=O)[C@H](CCCCN)NC(=O)[C@H](CCCCNC(=O)[C@H](CC(C)C)NC(=O)[C@@H](N)CCCCN)NC(=O)[C@H](CC(C)C)NC(=O)[C@@H](N)CCCCN)C(N)=O [MSt-265, (KL)8(KKL)4(KKL)2(KKLKC8)] (I: H-KLK([Leu-Lys])KLKKLKKLK(Octanoyl)-NH2 / II: H-KLK([Leu-Lys])KLKKL / III: H-KLK([Leu-Lys])KL / IV: H-KLK([Leu-Lys])KL; amide I:6-IV:C, I:9-II:C, II:6-III:C)	4 µg/mL (≈ 0.835 µM)	1 µg/mL (≈ 0.209 µM)	1 µg/mL (≈ 0.209 µM)
